# Assay results as given in US4572895A, “Process for preparing an antibiotic complex by culturing actinomyces strain ATCC 39417” (priority 1985, dated 1986).
# Assays:
# Escherichia coli NIHJ = assay: MIC, serial two-fold agar dilution; type: cell-based; conditions: nutrient agar
# [1] = tested on: Staphylococcus aureus 209P; assay: MIC, serial two-fold agar dilution; type: cell-based; conditions: nutrient agar
# [2] = tested on: Cryptococcus neoformans D49; assay: MIC, serial two-fold agar dilution; type: cell-based; conditions: Sabouraud agar
# Clostridium perfringens = assay: microbe, parasite or virus in culture; type: cell-based
# [3] = tested on: lymphocytic leukemia P388; assay: antitumor activity, P388 leukemia in mice; conditions: qd 1→9
# [4] = tested on: Bacillus subtilis PCI 219; assay: MIC, serial two-fold agar dilution; type: cell-based; conditions: PCI219, nutrient agar
# Bacteroides fragilis = assay: MIC, serial two-fold agar dilution; type: cell-based; conditions: GAM agar, anaerobe
# solubility = type: physicochemical
# Staphylococcus aureus = assay: anti-staphylococcal activity (MIC comparison); type: cell-based; conditions: vs BBM-2478B or chartreusin
# Propionibacterium acnes = assay: MIC, serial two-fold agar dilution; type: cell-based; conditions: Cutibacterium acnes; GAM agar, anaerobe
# [5] = acute toxicity, single intraperitoneal administration; conditions: mouse, in vivo; single ip, mice (ddY strain)
# melanotic melanoma B16 = assay: antitumor activity, B16 melanoma in mice; conditions: qd 1→9
# Clostridium difficile = assay: MIC, serial two-fold agar dilution; type: cell-based; conditions: Clostridioides difficile; GAM agar, anaerobe
# [6] = tested on: Pseudomonas aeruginosa D15; assay: MIC, serial two-fold agar dilution; type: cell-based; conditions: nutrient agar
# [7] = tested on: Candida albicans IAM 4888; assay: MIC, serial two-fold agar dilution; type: cell-based; conditions: IAM4888, Sabouraud agar
# Micrococcus flavus D12 = assay: MIC, serial two-fold agar dilution; type: cell-based; conditions: nutrient agar
# [8] = tested on: Staphylococcus aureus Smith; assay: MIC, serial two-fold agar dilution; type: cell-based; conditions: nutrient agar
# [9] = tested on: Trichophyton mentagrophytes D155; assay: MIC, serial two-fold agar dilution; type: cell-based; conditions: Sabouraud agar
# lymphoid leukemia L1210 = assay: antitumor activity, L1210 leukemia in mice; conditions: qd 1→9
# [10] = tested on: gram-negative bacteria and fungi; assay: antibacterial/antifungal activity (MIC), summary; type: cell-based
# [11] = tested on: aerobic gram-positive bacteria and anaerobic bacteria; assay: antibacterial activity, summary; type: cell-based
# Text: Nutrient agar medium was used for gram-positive and gram-negative bacteria, GAM agar medium for anaerobes and Sabouraud agar medium for fungi.
# [12] = tested on: Micrococcus luteus PCI 1001; assay: MIC, serial two-fold agar dilution; type: cell-based; conditions: PCI1001, nutrient agar
# [13] = tested on: P388, L1210 and B16 tumors; assay: antitumor activity in mice, summary over P388, L1210 and B16; type: in vivo, BDF1 mice
# [14] = tested on: Aspergillus fumigatus IAM 2530; assay: MIC, serial two-fold agar dilution; type: cell-based; conditions: IAM2530, Sabouraud agar
# [15] = tested on: Klebsiella pneumoniae D11; assay: MIC, serial two-fold agar dilution; type: cell-based; conditions: nutrient agar
smiles,measurement,setting,value
CO[C@@H]1[C@@H](N)[C@@H](O[C@H]2[C@H](Oc3cccc4c(O)c5c(=O)oc6ccc(C)c7c(=O)oc(c34)c5c67)O[C@H](C)[C@H](O)[C@]2(C)O)O[C@H](C)[C@@H]1O [BBM-2478A],MIC,Escherichia coli NIHJ,100 µg/mL
same,MIC,[1],1.6 µg/mL
same,MIC,[2],> 100 µg/mL
same,MIC,Clostridium perfringens,6.3 µg/mL
same,Average wt. change on day 5,[3]; 0.01 mg/kg/day ip,+2.0 g
same,MST,[3]; 0.01 mg/kg/day ip,10.0 days
same,Survivors on day 5,[3]; 0.01 mg/kg/day ip,6/6
same,Survivors on day 45,[3]; 0.01 mg/kg/day ip,0/6
same,T/C,[3]; 0.01 mg/kg/day ip,111%
same,Average wt. change on day 5,[3]; 0.03 mg/kg/day ip,+2.3 g
same,MST,[3]; 0.03 mg/kg/day ip,10.0 days
same,Survivors on day 5,[3]; 0.03 mg/kg/day ip,6/6
same,Survivors on day 45,[3]; 0.03 mg/kg/day ip,0/6
same,Average wt. change on day 5,[3]; 0.1 mg/kg/day ip,+1.2 g
same,MST,[3]; 0.1 mg/kg/day ip,14.5 days
same,Survivors on day 5,[3]; 0.1 mg/kg/day ip,6/6
same,Survivors on day 45,[3]; 0.1 mg/kg/day ip,0/6
same,Average wt. change on day 5,[3]; 0.3 mg/kg/day ip,+1.8 g
same,MST,[3]; 0.3 mg/kg/day ip,17.0 days
same,Survivors on day 5,[3]; 0.3 mg/kg/day ip,6/6
same,Survivors on day 45,[3]; 0.3 mg/kg/day ip,0/6
same,Average wt. change on day 5,[3]; 1 mg/kg/day ip,+0.8 g
same,MST,[3]; 1 mg/kg/day ip,21.5 days
same,Survivors on day 5,[3]; 1 mg/kg/day ip,6/6
same,Survivors on day 45,[3]; 1 mg/kg/day ip,0/6
same,Average wt. change on day 5,[3]; 3 mg/kg/day ip,-1.0 g
same,MST,[3]; 3 mg/kg/day ip,20.0 days
same,Survivors on day 5,[3]; 3 mg/kg/day ip,5/5
same,Survivors on day 45,[3]; 3 mg/kg/day ip,0/5
same,MIC,[4],0.8 µg/mL
same,MIC,Bacteroides fragilis,12.5 µg/mL
same,solubility in acidic water,solubility; acidic water,readily soluble
same,"solubility in dimethyl sulfoxide, dimethylformamide, dioxane","solubility; dimethyl sulfoxide, dimethylformamide, dioxane",readily soluble
same,"solubility in methanol, ethanol and chloroform","solubility; methanol, ethanol, chloroform",slightly soluble
same,solubility in other organic solvents,solubility; other organic solvents,insoluble
same,anti-staphylococcal activity relative to BBM-2478B or chartreusin,Staphylococcus aureus,two to four times higher
same,MIC,Propionibacterium acnes,6.3 µg/mL
same,LD50,[5],38 mg/kg
same,Average wt. change on day 5,melanotic melanoma B16; 0.03 mg/kg/day ip,+2.0 g
same,MST,melanotic melanoma B16; 0.03 mg/kg/day ip,16.0 days
same,Survivors on day 5,melanotic melanoma B16; 0.03 mg/kg/day ip,6/6
same,Survivors on day 45,melanotic melanoma B16; 0.03 mg/kg/day ip,0/6
same,T/C,melanotic melanoma B16; 0.03 mg/kg/day ip,114%
same,Average wt. change on day 5,melanotic melanoma B16; 0.1 mg/kg/day ip,+2.5 g
same,MST,melanotic melanoma B16; 0.1 mg/kg/day ip,18.5 days
same,Survivors on day 5,melanotic melanoma B16; 0.1 mg/kg/day ip,6/6
same,Survivors on day 45,melanotic melanoma B16; 0.1 mg/kg/day ip,0/6
same,Average wt. change on day 5,melanotic melanoma B16; 0.3 mg/kg/day ip,+2.5 g
same,MST,melanotic melanoma B16; 0.3 mg/kg/day ip,25.5 days
same,Survivors on day 5,melanotic melanoma B16; 0.3 mg/kg/day ip,6/6
same,Survivors on day 45,melanotic melanoma B16; 0.3 mg/kg/day ip,0/6
same,Average wt. change on day 5,melanotic melanoma B16; 1 mg/kg/day ip,+2.2 g
same,MST,melanotic melanoma B16; 1 mg/kg/day ip,34.5 days
same,Survivors on day 5,melanotic melanoma B16; 1 mg/kg/day ip,6/6
same,Survivors on day 45,melanotic melanoma B16; 1 mg/kg/day ip,0/6
same,Average wt. change on day 5,melanotic melanoma B16; 3 mg/kg/day ip,+1.5 g
same,MST,melanotic melanoma B16; 3 mg/kg/day ip,41.5 days
same,Survivors on day 5,melanotic melanoma B16; 3 mg/kg/day ip,6/6
same,Survivors on day 45,melanotic melanoma B16; 3 mg/kg/day ip,0/6
same,MIC,Clostridium difficile,12.5 µg/mL
same,MIC,[6],100 µg/mL
same,MIC,[7],> 100 µg/mL
same,MIC,Micrococcus flavus D12,0.8 µg/mL
same,MIC,[8],0.8 µg/mL
same,MIC,[9],> 100 µg/mL
same,Average wt. change on day 5,lymphoid leukemia L1210; 0.01 mg/kg/day ip,+3.2 g
same,MST,lymphoid leukemia L1210; 0.01 mg/kg/day ip,8.0 days
same,Survivors on day 5,lymphoid leukemia L1210; 0.01 mg/kg/day ip,6/6
same,Survivors on day 45,lymphoid leukemia L1210; 0.01 mg/kg/day ip,0/6
same,T/C,lymphoid leukemia L1210; 0.01 mg/kg/day ip,100%
same,Average wt. change on day 5,lymphoid leukemia L1210; 0.03 mg/kg/day ip,+2.9 g
same,MST,lymphoid leukemia L1210; 0.03 mg/kg/day ip,8.0 days
same,Survivors on day 5,lymphoid leukemia L1210; 0.03 mg/kg/day ip,6/6
same,Survivors on day 45,lymphoid leukemia L1210; 0.03 mg/kg/day ip,0/6
same,T/C,lymphoid leukemia L1210; 0.03 mg/kg/day ip,100%
same,Average wt. change on day 5,lymphoid leukemia L1210; 0.1 mg/kg/day ip,+2.6 g
same,MST,lymphoid leukemia L1210; 0.1 mg/kg/day ip,8.0 days
same,Survivors on day 5,lymphoid leukemia L1210; 0.1 mg/kg/day ip,6/6
same,Survivors on day 45,lymphoid leukemia L1210; 0.1 mg/kg/day ip,0/6
same,T/C,lymphoid leukemia L1210; 0.1 mg/kg/day ip,100%
same,Average wt. change on day 5,lymphoid leukemia L1210; 0.3 mg/kg/day ip,+1.3 g
same,MST,lymphoid leukemia L1210; 0.3 mg/kg/day ip,10.5 days
same,Survivors on day 5,lymphoid leukemia L1210; 0.3 mg/kg/day ip,6/6
same,Survivors on day 45,lymphoid leukemia L1210; 0.3 mg/kg/day ip,0/6
same,Average wt. change on day 5,lymphoid leukemia L1210; 1 mg/kg/day ip,-0.8 g
same,MST,lymphoid leukemia L1210; 1 mg/kg/day ip,11.0 days
same,Survivors on day 5,lymphoid leukemia L1210; 1 mg/kg/day ip,6/6
same,Survivors on day 45,lymphoid leukemia L1210; 1 mg/kg/day ip,0/6
same,Average wt. change on day 5,lymphoid leukemia L1210; 3 mg/kg/day ip,-0.1 g
same,MST,lymphoid leukemia L1210; 3 mg/kg/day ip,12.0 days
same,Survivors on day 5,lymphoid leukemia L1210; 3 mg/kg/day ip,6/6
same,Survivors on day 45,lymphoid leukemia L1210; 3 mg/kg/day ip,0/6
same,activity against gram-negative bacteria and fungi,[10],inactive
same,antibacterial activity,[11],potent antibacterial activity
same,MIC,[12],0.8 µg/mL
same,T/C values compared with chartreusin,"[13]; all tumors tested, ip, qd 1→9",superior to those of chartreusin
same,antitumor activity,[13]; experimental mouse tumors,significant antitumor activity
same,MIC,[14],> 100 µg/mL
same,MIC,[15],100 µg/mL
